Assay results: ChEMBL document CHEMBL1201862, “PubChem BioAssay data set” (2004)
Activity calls are given as the source filed them.

Assays:
Cytochrome P450 1A2 = target: T1, Cytochrome P450 1A2 (Homo sapiens, UniProt P05177);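 also: PubChem cytochrome P450 panel assay, CYP1A2 panel member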
T1 sequence (P05177 whole entry): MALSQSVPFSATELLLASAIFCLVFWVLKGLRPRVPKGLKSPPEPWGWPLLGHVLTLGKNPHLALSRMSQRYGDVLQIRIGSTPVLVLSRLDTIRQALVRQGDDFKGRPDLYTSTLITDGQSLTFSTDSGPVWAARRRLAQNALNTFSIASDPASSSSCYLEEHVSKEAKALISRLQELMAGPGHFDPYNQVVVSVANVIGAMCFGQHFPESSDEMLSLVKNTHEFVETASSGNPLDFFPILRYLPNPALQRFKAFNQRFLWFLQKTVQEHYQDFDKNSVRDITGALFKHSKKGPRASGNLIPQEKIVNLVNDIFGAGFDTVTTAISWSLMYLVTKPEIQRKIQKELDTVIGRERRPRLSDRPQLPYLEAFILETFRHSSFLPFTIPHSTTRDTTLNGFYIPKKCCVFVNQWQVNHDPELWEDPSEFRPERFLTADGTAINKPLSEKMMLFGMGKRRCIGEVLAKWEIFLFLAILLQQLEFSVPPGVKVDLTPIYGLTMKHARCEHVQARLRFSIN

[1] = viability of uninfected HEp-2 cells – cell-based, HTS, cytotoxicity control for RSV inhibitor project, dose response (AID 2410); type: functional; details: human respiratory syncytial virus
Cytochrome P450 3A4 = Cytochrome P450 3A4 (Homo sapiens, UniProt P08684);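 also: CYP3A4 tested as one member of a cytochrome P450 panel screen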
Chain of Cytochrome P450 3A4 (P08684 whole entry): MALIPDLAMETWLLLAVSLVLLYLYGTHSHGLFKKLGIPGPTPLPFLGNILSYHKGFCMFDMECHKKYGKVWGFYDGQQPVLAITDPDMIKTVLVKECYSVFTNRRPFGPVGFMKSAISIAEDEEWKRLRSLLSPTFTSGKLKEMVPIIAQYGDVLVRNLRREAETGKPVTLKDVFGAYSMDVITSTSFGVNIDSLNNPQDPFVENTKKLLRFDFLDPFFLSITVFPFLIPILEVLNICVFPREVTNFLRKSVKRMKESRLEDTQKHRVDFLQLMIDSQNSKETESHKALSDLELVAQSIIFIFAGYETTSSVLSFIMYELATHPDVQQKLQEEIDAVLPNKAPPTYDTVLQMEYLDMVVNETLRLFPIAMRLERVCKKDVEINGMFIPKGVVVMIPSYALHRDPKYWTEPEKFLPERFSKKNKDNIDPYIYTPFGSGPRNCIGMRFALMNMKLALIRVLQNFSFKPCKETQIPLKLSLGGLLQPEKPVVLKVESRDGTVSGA

Cytochrome P450 2D6 = Cytochrome P450 2D6 (Homo sapiens, UniProt P10635);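 also: CYP2D6 member of a cytochrome P450 panel assay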
Chain of Cytochrome P450 2D6 (P10635 whole entry): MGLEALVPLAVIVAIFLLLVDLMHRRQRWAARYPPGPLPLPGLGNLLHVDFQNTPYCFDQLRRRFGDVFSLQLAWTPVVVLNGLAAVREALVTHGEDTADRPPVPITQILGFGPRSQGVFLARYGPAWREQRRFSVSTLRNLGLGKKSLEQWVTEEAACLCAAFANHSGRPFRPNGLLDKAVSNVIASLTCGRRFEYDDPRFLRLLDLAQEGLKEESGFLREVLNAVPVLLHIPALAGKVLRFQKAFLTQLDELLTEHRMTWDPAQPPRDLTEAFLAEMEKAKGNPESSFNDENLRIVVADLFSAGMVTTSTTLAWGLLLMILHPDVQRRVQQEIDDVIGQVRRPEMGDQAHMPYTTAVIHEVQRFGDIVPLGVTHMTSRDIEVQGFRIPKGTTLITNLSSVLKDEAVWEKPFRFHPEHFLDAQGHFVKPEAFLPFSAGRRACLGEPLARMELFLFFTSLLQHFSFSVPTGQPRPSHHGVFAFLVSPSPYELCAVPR

Streptokinase A = target: T2, Streptokinase A (Streptococcus pyogenes serotype M1, UniProt P10520); experiment: viability-normalized secreted streptokinase activity reduction – plasminogen activation absorbance, OD405, dose response (AID 1914); type: functional, Streptococcus pyogenes M1 GAS;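 also: secreted streptokinase activity via plasminogen activation per viability signal from cell pellet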
T2 sequence (P10520 whole entry): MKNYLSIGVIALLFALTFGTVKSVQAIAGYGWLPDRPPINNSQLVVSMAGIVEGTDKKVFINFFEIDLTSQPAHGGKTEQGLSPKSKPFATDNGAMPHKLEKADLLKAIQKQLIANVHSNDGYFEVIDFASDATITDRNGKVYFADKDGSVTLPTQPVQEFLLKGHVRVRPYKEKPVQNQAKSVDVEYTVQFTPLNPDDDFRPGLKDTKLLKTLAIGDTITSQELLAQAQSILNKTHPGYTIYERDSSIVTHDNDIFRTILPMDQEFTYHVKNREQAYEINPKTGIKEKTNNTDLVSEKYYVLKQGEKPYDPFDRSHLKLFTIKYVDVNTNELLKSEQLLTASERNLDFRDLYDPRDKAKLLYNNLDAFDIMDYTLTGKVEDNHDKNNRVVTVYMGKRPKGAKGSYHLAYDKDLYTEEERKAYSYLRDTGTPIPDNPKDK

[2] = Luminescence Cell-Based Dose Retest to Confirm Inhibitors of Cancer Stem Cells. [Related pubchem assays (depositor defined):AID2717, AID2721]; type: functional; details: Homo sapiens
Streptococcus = experiment: GAS UMAA2166 growth inhibition – luminescence, BacTiterGlo, counter-screen for streptokinase expression inhibitor project, dose response (AID 1915); type: functional, organism-based;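 also: potency for reduction of bacterial viability or growth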
[3] = microbe, parasite or virus in culture; type: functional; details: Mycobacterium tuberculosis
[4] = tested on: Streptococcus sp. 'group A'; experiment: Streptococcus pyogenes SK(-)GAS viability under kanamycin – luminescence, BacTiterGlo, confirmation, counter-screen for streptokinase expression inhibitor project, dose response (AID 1900); type: functional, organism-based
[5] = fluconazole-exposed Candida albicans growth modulators – fluorescence, retest, confirmation (AID 2467); type: functional, cell-based
[6] = NIH-3T3 fibroblast cytotoxicity, dose response, cytotoxicity control, cell-based, fluorescence, Alamar Blue, secondary assay (AID 2327); type: functional;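 also: NIH-3T3 mouse fibroblasts cultured with fluconazole at 8 µg/mL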
[7] = luciferase reporter signal suppression in cells – H4 neuroglioma cells, luminescence, dose response (AID 1990); type: functional, cell-based
[8] = Luminescence Cell-Based Dose Response HTS to Identify Inhibitors of 5'UTR Stem-Loop Driven Prion Protein mRNA Translation in H4 Neuroglioblastoma Cells. [Related pubchem assays: 1827 (Project Summary), 1813 (Primary HTS)]; type: functional
[9] = alpha-synuclein stem-loop luciferase translation blockers – H4 neuroglioma cells, luminescence, confirmation (AID 1988); type: functional, cell-based
Paired box protein Pax-8 = Paired box protein Pax-8 (Homo sapiens, UniProt Q06710); experiment: PAX8 transcriptional activity inhibition in RMG-I – RMG-I cells, luciferase, cherry-pick, dose response (AID 687027); type: functional, cell-based;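 also: luciferase reporter driven by Pax8 target thyroperoxidase promoter measured by SteadyGlo luminescence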
Chain of Paired box protein Pax-8 (Q06710 whole entry): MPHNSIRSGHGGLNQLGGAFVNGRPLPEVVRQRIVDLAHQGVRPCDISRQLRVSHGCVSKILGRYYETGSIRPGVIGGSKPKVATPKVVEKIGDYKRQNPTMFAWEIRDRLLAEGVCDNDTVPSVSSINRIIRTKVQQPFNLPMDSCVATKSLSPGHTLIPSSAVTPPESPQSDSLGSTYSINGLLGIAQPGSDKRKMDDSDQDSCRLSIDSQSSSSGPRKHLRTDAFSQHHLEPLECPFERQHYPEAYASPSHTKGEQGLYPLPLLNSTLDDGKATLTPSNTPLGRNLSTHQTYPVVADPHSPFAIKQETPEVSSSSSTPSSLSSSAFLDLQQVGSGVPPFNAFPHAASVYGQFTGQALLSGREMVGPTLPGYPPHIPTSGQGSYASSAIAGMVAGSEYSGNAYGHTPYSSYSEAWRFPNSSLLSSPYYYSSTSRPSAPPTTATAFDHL

[10] = viability of HCT116 lacking mutant beta-catenin – cell-based, human colon tumor, dose response (AID 1045); type: functional;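 also: HCT116 colon tumor cells with beta catenin knocked out; cells exposed to compound for 60 hours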
Cytochrome P450 2C19 = Cytochrome P450 2C19 (Homo sapiens, UniProt P33261); experiment: Cytochrome panel assay with activity outcomes. Panel member name: p450-cyp2c19 Compounds with AC50 equal or less than 10 uM are considered active; type: functional
Chain of Cytochrome P450 2C19 (P33261 whole entry): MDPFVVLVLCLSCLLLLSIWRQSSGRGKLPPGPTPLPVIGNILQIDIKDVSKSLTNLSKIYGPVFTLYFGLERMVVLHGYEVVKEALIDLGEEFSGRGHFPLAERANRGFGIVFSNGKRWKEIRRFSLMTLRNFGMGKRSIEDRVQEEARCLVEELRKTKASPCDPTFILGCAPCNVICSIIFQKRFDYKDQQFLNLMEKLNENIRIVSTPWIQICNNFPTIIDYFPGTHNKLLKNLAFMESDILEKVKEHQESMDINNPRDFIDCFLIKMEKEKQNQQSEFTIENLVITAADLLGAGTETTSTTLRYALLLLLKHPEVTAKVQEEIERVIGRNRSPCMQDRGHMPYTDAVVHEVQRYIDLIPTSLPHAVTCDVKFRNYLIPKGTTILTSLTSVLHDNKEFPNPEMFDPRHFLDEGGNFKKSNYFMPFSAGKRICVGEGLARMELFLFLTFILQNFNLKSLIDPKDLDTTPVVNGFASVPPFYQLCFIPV

## COc1cccc(NC(=O)CSc2nc3ccccc3cc2Cc2ccccc2)c1
Cytochrome P450 1A2
  AC50: 4.47 µM (inconclusive)

## Cc1ccc2c(c1)N(C(=O)CCC(=O)N1CCN(c3cccc(C)c3C)CC1)CCO2
[1]
  CC50: 5.57 µM (active)

## CCOC(=O)c1[nH]c(C)c(C(=O)C2=C(O)C(=O)N(CCN3CCOCC3)C2c2cccs2)c1C (stereo unspecified)
Cytochrome P450 3A4
  AC50: 14.1 µM (inconclusive)

## O=C(NCc1ccco1)Nc1cccs1
Cytochrome P450 2D6
  AC50: 14.1 µM (inconclusive)
Cytochrome P450 3A4
  AC50: 20 µM (inconclusive)

## Oc1ncnc2c1sc1nc3c(c(-c4ccc(Cl)cc4)c12)CCC3
[1]
  CC50: > 50 µM (active)

## Cc1cccc(NC(=O)c2[nH]cnc2C(=O)NCC(=O)OC(C)(C)C)c1
[1]
  CC50: > 50 µM (active)

## O=C(Nc1nc(-c2cc(Cl)sc2Cl)cs1)c1cccs1
Streptokinase A
  EC50: > 50 µM (not active)
[2]
  AC50: 1.13 µM (active)
Streptococcus
  EC50: 18.1 µM (active)
[3]
  CC50: 25.9 µM (active)
[4]
  EC50: 14.2 µM (active)

## COCCSc1nnc(NC(=O)CCS(=O)(=O)c2ccccc2)s1
[5]
  EC50: 3.97 µM (active)
[6]
  EC50: > 150 µM (inactive)

## CCOc1ccc(OCC)c(NC(=O)CSc2nc3ccccc3c(=O)n2C)c1
[7]
  EC50: 29.5 µM (active)
[8]
  EC50: 71.4 µM (active)
[9]
  EC50: 69.6 µM (active)

## CC(C)CCNC(=O)C(c1ccco1)N(Cc1ccc(F)cc1)C(=O)c1snc(C(N)=O)c1N (stereo unspecified)
[5]
  EC50: > 38 µM (not active)
[6]
  EC50: 26.5 µM (active)

## CCOc1ncccc1C(=O)Nc1ccc(F)cc1
[1]
  CC50: 46.3 µM (active)

## C[C@@H](NC(=O)c1[nH]cnc1C(=O)N[C@@H](Cc1ccccc1)C(=O)OC(C)(C)C)c1ccccc1
Paired box protein Pax-8
  AC50: 5.32 µM (active)

## Cc1ccc(S(=O)(=O)c2nc(Nc3nccs3)sc2Cl)cc1
[3]
  CC50: > 40 µM (active)

## COCCSc1nnc(NC(=O)C(C)(C)C)s1
Cytochrome P450 1A2
  AC50: 25.1 µM (inconclusive)

## N=C(NOC(=O)C12CC3CC(CC(C3)C1)C2)c1ccccc1
[10]
  EC50: 90.5 µM (active)

## CC(C)[C@H](N)c1nnc(SCc2ccc(Cl)cc2)o1
Cytochrome P450 2D6
  AC50: 28.2 µM (inconclusive)

## CCC(=O)c1ccc(OCC(O)CN2CCCCC2)cc1.Cl (stereo unspecified)
Cytochrome P450 2D6
  AC50: 39.8 µM (inconclusive)
Cytochrome P450 2C19
  AC50: inconclusive

## CC1CCCC=CC2CC(OC(=O)CN(C)C)CC2C(O)C=CC(=O)O1 (stereo unspecified)
Paired box protein Pax-8
  AC50: < 0.26 µM (active)

## CC(C)NC(=O)C(C)n1cccc1C(=O)c1ccccc1 (stereo unspecified)
Cytochrome P450 3A4
  AC50: 15.8 µM (inconclusive)

## COc1ccc(C2C(C(=O)c3ccc(Cl)cc3)=C(O)C(=O)N2CCN2CCOCC2)c(OC)c1 (stereo unspecified)
Cytochrome P450 3A4
  AC50: 20 µM (inconclusive)
Cytochrome P450 2C19; read-out: AC50
  AC50: 39.8 µM (inconclusive)

## COc1ccc(CN(C)C[C@H]2OCCCC[C@H](C)Oc3ccc(NC(=O)Nc4ccc(C(F)(F)F)cc4)cc3C(=O)N([C@H](C)CO)C[C@@H]2C)cc1
Paired box protein Pax-8
  AC50: 10.9 µM (active)

## COc1cccc(/C=N/NC(=O)CCCC(=O)NC2CCCCC2)c1
[7]
  EC50: > 120 µM (not active)
[8]
  EC50: > 120 µM (not active)
[9]
  EC50: 15.6 µM (active)

## c1ccc2nc(-c3ccncc3)ccc2c1
[1]
  CC50: 25.4 µM (active)

## O=C(Nc1cnc2ccccc2c1)c1cccc(-n2cnnn2)c1
Cytochrome P450 2D6
  AC50: 7.94 µM (inconclusive)

## COc1cc(OC)c2cc(-c3ccncc3)cnc2c1
Cytochrome P450 3A4
  AC50: 0.316 µM (inconclusive)
Cytochrome P450 2C19; read-out: AC50
  AC50: 31.6 µM (inconclusive)

## CC1(C)C=Cc2c(ccc3c2OC[C@@H](c2ccc(O)cc2O)C3)O1 [GLABRIDIN]
[2]
  AC50: 6.05 µM (active)
[1]
  CC50: 13.4 µM (active)
